Assays:
[1] = target: Beta-2 adrenergic receptor (Homo sapiens, UniProt P07550)
Description: Agonist activity at human beta2 adrenoceptor expressed in HEK293 cells assessed as induction of accumulation of cAMP by HTRF assay

Trachea = assay: Induction of smooth muscle relaxation in male Dunkin-Hartley guinea pig trachea strips assessed as maximal relaxation of histamine phosphate-induced guinea pig airway smooth muscle contraction relative to control; settings: Cavia porcellus
[2] = target: Beta-1 adrenergic receptor (Homo sapiens, UniProt P08588)
Description: Agonist activity at human beta1 adrenoceptor expressed in HEK293 cells assessed as induction of accumulation of cAMP by HTRF assay

[3] = MRT in male Balb/c mouse at 10 mg/kg, po measured upto 24 hrs by LC-MS/MS analysis; type: ADME, organism-based; settings: in vivo
[4] = AUC (0 to t) in male Balb/c mouse at 2 mg/kg, iv measured upto 24 hrs by LC-MS/MS analysis; type: ADME, organism-based; settings: in vivo
[5] = Half life in male Balb/c mouse at 10 mg/kg, po measured upto 24 hrs by LC-MS/MS analysis; type: ADME, organism-based; settings: in vivo
[6] = Tmax in male Balb/c mouse at 10 mg/kg, po measured upto 24 hrs by LC-MS/MS analysis; type: ADME, organism-based; settings: in vivo
[7] = AUC (0 to infinity) in male Balb/c mouse at 2 mg/kg, iv measured upto 24 hrs by LC-MS/MS analysis; type: ADME, organism-based; settings: in vivo
[8] = Cmax in male Balb/c mouse at 2 mg/kg, iv measured upto 24 hrs by LC-MS/MS analysis; type: ADME, organism-based; settings: in vivo
[9] = MRT (0 to infinity) in male Balb/c mouse at 2 mg/kg, iv measured upto 24 hrs by LC-MS/MS analysis; type: ADME, organism-based; settings: in vivo
[10] = Cmax in male Balb/c mouse at 10 mg/kg, po measured upto 24 hrs by LC-MS/MS analysis; type: ADME, organism-based; settings: in vivo
[11] = MRT (0 to infinity) in male Balb/c mouse at 10 mg/kg, po measured upto 24 hrs by LC-MS/MS analysis; type: ADME, organism-based; settings: in vivo
[12] = MRT in male Balb/c mouse at 2 mg/kg, iv measured upto 24 hrs by LC-MS/MS analysis; type: ADME, organism-based; settings: in vivo
[13] = Half life in male Balb/c mouse at 2 mg/kg, iv measured upto 24 hrs by LC-MS/MS analysis; type: ADME, organism-based; settings: in vivo
[14] = AUC (0 to t) in male Balb/c mouse at 10 mg/kg, po measured upto 24 hrs by LC-MS/MS analysis; type: ADME, organism-based; settings: in vivo
[15] = Oral bioavailability in male Balb/c mouse at 10 mg/kg measured upto 24 hrs by LC-MS/MS analysis; type: ADME, organism-based; settings: in vivo
[16] = AUC (0 to infinity) in male Balb/c mouse at 10 mg/kg, po measured upto 24 hrs by LC-MS/MS analysis; type: ADME, organism-based; settings: in vivo
[17] = Apparent volume of distribution in male Balb/c mouse at 2 mg/kg, iv measured upto 24 hrs by LC-MS/MS analysis; type: ADME, organism-based; settings: in vivo, read-out: Vd(app)
[18] = Tmax in male Balb/c mouse at 2 mg/kg, iv measured upto 24 hrs by LC-MS/MS analysis; type: ADME, organism-based; settings: in vivo
[19] = Clearance in male Balb/c mouse at 2 mg/kg, iv measured upto 24 hrs by LC-MS/MS analysis; type: ADME, organism-based; settings: in vivo

Sequence of Beta-2 adrenergic receptor (P07550 whole entry): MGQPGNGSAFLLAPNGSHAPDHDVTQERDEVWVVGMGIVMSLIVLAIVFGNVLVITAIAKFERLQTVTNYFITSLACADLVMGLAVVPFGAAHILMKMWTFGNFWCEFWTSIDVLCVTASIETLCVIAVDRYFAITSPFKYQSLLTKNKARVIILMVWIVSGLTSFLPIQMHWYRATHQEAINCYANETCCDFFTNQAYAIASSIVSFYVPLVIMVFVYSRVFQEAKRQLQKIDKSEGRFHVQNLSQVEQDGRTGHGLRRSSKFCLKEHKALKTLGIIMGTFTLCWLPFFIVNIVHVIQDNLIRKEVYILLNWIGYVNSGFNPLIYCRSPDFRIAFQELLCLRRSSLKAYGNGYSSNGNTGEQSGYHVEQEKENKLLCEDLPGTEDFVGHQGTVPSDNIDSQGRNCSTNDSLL
Sequence of Beta-1 adrenergic receptor (P08588 whole entry): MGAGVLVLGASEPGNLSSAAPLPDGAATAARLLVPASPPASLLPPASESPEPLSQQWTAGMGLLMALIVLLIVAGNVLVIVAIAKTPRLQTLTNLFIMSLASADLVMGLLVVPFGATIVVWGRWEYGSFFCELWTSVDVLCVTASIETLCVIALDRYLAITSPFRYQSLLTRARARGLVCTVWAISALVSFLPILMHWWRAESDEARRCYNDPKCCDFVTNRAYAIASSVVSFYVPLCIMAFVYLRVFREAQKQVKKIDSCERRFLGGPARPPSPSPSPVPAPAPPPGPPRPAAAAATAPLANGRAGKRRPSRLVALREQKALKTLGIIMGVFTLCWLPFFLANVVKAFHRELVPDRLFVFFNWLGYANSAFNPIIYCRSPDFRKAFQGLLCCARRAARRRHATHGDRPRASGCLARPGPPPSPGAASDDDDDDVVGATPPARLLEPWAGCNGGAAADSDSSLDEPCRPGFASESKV

| EC50 [1] [nM] | EC50 [2] [nM] | SMILES | Emax (Trachea) [%] | further results |
| --- | --- | --- | --- | --- |
| 0.0038 | 0.513 | COc1ccc(CCCNCC(O)c2ccc(O)c3c2OCC(=O)N3)cc1 (stereo unspecified) | 74.2 |  |
|  | 0.324 | Cc1ccccc1CCCNCC(O)c1ccc(O)c2c1OCC(=O)N2 (stereo unspecified) |  |  |
| 0.00759 |  | Cc1ccc(CCCNCC(O)c2ccc(O)c3c2OCC(=O)N3)cc1 (stereo unspecified) |  |  |
| 0.00479 | 0.17 | O=C1COc2c(C(O)CNCCCc3ccccc3F)ccc(O)c2N1 (stereo unspecified) | 90.5 |  |
|  | 0.513 | O=C1COc2c(C(O)CNCCCc3cccc(C(F)(F)F)c3)ccc(O)c2N1 (stereo unspecified) |  |  |
|  | 0.309 | O=C1COc2c(C(O)CNCCCCc3ccccc3)ccc(O)c2N1 (stereo unspecified) |  |  |
|  | 1.7 | O=C1COc2c(C(O)CNCCOc3ccccc3)ccc(O)c2N1 (stereo unspecified) |  |  |
| 0.0115 | 4.07 | O=C1COc2c(C(O)CNCCc3ccccc3F)ccc(O)c2N1 (stereo unspecified) | 128 |  |
|  | 5.37 | O=C1COc2c(C(O)CNCCc3ccccc3Cl)ccc(O)c2N1 (stereo unspecified) |  |  |
| 0.0038 | 0.245 | O=C1COc2c(C(O)CNCCCc3ccc(F)cc3)ccc(O)c2N1 (stereo unspecified) | 69.5 |  |
| 0.0282 | 0.912 | Cc1ccccc1CCNCC(O)c1ccc(O)c2c1OCC(=O)N2 (stereo unspecified) | 135 |  |
| 0.00457 | 0.178 | COc1ccccc1CCCNCC(O)c1ccc(O)c2c1OCC(=O)N2 (stereo unspecified) | 109 |  |
| 0.00437 | 0.138 | O=C1COc2c(C(O)CNCCCc3cccc(O)c3)ccc(O)c2N1 (stereo unspecified) | 87.4 |  |
| 0.00468 |  | O=C1COc2c(C(O)CNCCCc3cccc(F)c3)ccc(O)c2N1 (stereo unspecified) | 126 |  |
| 0.00794 |  | COc1cccc(CCCNCC(O)c2ccc(O)c3c2OCC(=O)N3)c1 (stereo unspecified) |  |  |
|  | 0.245 | Cc1cccc(CCCNCC(O)c2ccc(O)c3c2OCC(=O)N3)c1 (stereo unspecified) |  |  |
| 0.00589 | 0.257 | O=C1COc2c(C(O)CNCCCc3ccccc3)ccc(O)c2N1 (stereo unspecified) | 237 |  |
|  | 0.129 | O=C1COc2c(C(O)CNCCCc3ccccc3O)ccc(O)c2N1 (stereo unspecified) |  |  |
| 0.0269 | 3.72 | O=C1COc2c(C(O)CNCCc3cccc(Cl)c3)ccc(O)c2N1 (stereo unspecified) | 65.3 |  |
| 0.024 | 1.38 | O=C1COc2c(C(O)CNCCc3cccc(F)c3)ccc(O)c2N1 (stereo unspecified) | 94.9 |  |
| 0.00575 | 0.12 | O=C1COc2c(C(O)CNCCCc3ccc(O)cc3)ccc(O)c2N1 (stereo unspecified) | 181 |  |
|  | 1.91 | O=C1COc2c(C(O)CNCCc3ccccc3)ccc(O)c2N1 (stereo unspecified) |  |  |

The remaining lines, values behind:

| SMILES | EC50 [1] [nM] | EC50 [2] [nM] | Emax (Trachea) [%] | further results |
| --- | --- | --- | --- | --- |
| O=C1COc2c(C(O)CNCCCc3ccc(C(F)(F)F)cc3)ccc(O)c2N1 (stereo unspecified) | 0.0055 | 1.2 | 132 |  |
| O=C1COc2c(C(O)CNCCc3ccc(Cl)cc3)ccc(O)c2N1 (stereo unspecified) | 1.32 | 1000 | 86.7 |  |
| O=C1COc2c(C(O)CNCCc3ccc(F)cc3)ccc(O)c2N1 (stereo unspecified) | 0.00537 | 3.72 | 76.7 |  |
| COc1ccc(CC(C)(C)NC[C@H](O)c2cc(O)cc3c2OCC(=O)N3)cc1 [OLODATEROL] |  | 33.9 |  |  |
| CC(C)NCC(O)c1ccc(O)c(O)c1 (stereo unspecified) [ISOPROTERENOL] |  |  | 141 |  |
| COc1cc(CCCNCC(O)c2ccc(O)c3c2OCC(=O)N3)cc(OC)c1OC (stereo unspecified) | 0.0537 | 1.58 | 142 |  |
| CCCNCC(O)c1ccc(O)c2c1OCC(=O)N2 (stereo unspecified) | 0.0316 | 14.5 | 60.5 |  |
| CCCCNCC(O)c1ccc(O)c2c1OCC(=O)N2 (stereo unspecified) | 0.0257 | 16.6 | 53.3 |  |
| CC(C)(C)NCC(O)c1ccc(O)c2c1OCC(=O)N2 (stereo unspecified) |  | 2.14 |  |  |
| O=C1COc2c(C(O)CNC3CC3)ccc(O)c2N1 (stereo unspecified) | 0.0224 | 1.32 | 123 |  |
| O=C1COc2c(C(O)CNCCC(c3ccccc3)c3ccccc3)ccc(O)c2N1 (stereo unspecified) | 0.0468 | 2.24 | 63.3 |  |
| O=C1COc2c(C(O)CNCCCc3cc(F)cc(F)c3)ccc(O)c2N1 (stereo unspecified) |  | 0.105 |  |  |
| CCCCCCNCC(O)c1ccc(O)c2c1OCC(=O)N2 (stereo unspecified) |  | 2.19 |  |  |
| CC(C)NCC(O)c1ccc(O)c2c1OCC(=O)N2 (stereo unspecified) |  | 1.82 |  |  |
| COc1ccccc1CCNCC(O)c1ccc(O)c2c1OCC(=O)N2.Cl (stereo unspecified) |  |  |  | MRT [3]: 5.92 h; AUC(0-t) at 24 h [4]: 329 ng·h/mL; half-life [5]: 3.77 h; Tmax [6]: 5.33 h; AUC [7]: 338 ng·h/mL; Cmax [8]: 416 ng/mL; MRT inf [9]: 3.43 h; Cmax [10]: 24 ng/mL; MRT inf [11]: 6.98 h; MRT [12]: 2.67 h; half-life [13]: 5.21 h; AUC(0-t) at 24 h [14]: 294 ng·h/mL; F [15]: 7.65%; AUC [16]: 306 ng·h/mL; Vd [17]: 44 L/kg; Tmax [18]: 4.98 min; clearance [19]: 102 mL/min/kg |
| COc1cccc(CCNCC(O)c2ccc(O)c3c2OCC(=O)N3)c1 (stereo unspecified) | 0.00871 |  |  |  |
| COc1ccc(CCNCC(O)c2ccc(O)c3c2OCC(=O)N3)cc1 (stereo unspecified) | 0.0132 | 2.19 | 59.6 |  |

From ChEMBL document CHEMBL5528055, “Discovery and Identification of Novel 5-Hydroxy-4H-benzo[1,4]oxazin-3-one Derivatives as Potent β2-Adrenoceptor Agonists through Structure-Based Design, Synthesis, and Biological Evaluation” (J Med Chem, 2024)
